Data published in patent US20130065962A1, “Compounds For Use In The Treatment Of Diseases” (INOXIA LIFESCIENCES GMBH, priority 2010, published 2013).
Read-outs that look alike come from different tables or passages of the source.

How the values were obtained:
Assay type in all cases: biochemical
[1] = target: T1, eosinophil peroxidase (EPO) (Homo sapiens, UniProt P11678); experiment: EPO bromination activity, monochlorodimedon (MCD) assay
T1 construct: 20 nM of EPO
T1 sequence (P11678 140-715): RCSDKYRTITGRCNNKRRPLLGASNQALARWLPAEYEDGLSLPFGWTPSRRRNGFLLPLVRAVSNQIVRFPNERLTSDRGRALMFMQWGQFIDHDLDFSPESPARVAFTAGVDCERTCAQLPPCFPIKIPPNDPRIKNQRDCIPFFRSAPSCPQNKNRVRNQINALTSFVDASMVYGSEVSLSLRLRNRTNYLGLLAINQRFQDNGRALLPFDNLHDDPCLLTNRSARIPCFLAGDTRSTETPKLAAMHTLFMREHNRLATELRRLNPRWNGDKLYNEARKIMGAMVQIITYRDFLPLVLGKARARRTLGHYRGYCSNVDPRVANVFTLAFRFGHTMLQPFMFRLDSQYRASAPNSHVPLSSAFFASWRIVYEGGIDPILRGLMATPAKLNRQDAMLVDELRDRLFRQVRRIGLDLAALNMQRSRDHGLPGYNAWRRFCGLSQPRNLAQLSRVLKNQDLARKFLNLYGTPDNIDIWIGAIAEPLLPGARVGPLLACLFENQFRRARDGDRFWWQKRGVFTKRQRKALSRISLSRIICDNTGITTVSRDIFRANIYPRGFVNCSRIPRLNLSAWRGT
Experimental: In order to test to what extent the substances according to the invention are able to inhibit EPO, the substances were tested for their inhibitory potential. […] In that, IC50 is that inhibitor concentration, which is required to inhibit an enzyme, here EPO, by 50%. This concentration is determined UV/Vis spectrophotometrically at 290 nm in the steady-state with a monochlorodimedon (MCD) assay.
Eosinophil peroxidase forms a multiplicity of different enzyme intermediates and is able to catalyze a high number of redox reactions. The physiological role of EPO is the oxidation of bromide or thiocyanate, respectively, to hypobromous acid or hypothiocyanate, respectively (also called halogenation cycle). And it is exactly this reaction that has to be inhibited. In the presence of phenolic substances, however, the enzyme can also undergo the so-called peroxidase cycle.
In order to determine the properties of the substances according to the invention to be inhibited, a method was used, in which the bromination activity is examined.
The extent of inhibition of the physiological bromide oxidation was photometrically determined using monochlorodimedon. The halogenation rate (initial inclination of the curve at 290 nm) with inhibitor was related to a blind value (without inhibitor), and therefrom the inactivation rate (in %) was determined. This was entered into a diagram (y-axis) opposite the inhibitor concentration (x-axis), and from the hyperbolic fit of the curve, the IC50 value for each inhibitor was determined.
100 mM of phosphate buffer, pH 7.0
100 μM of monochlorodimedon

lactoperoxidase (LPO) = lactoperoxidase (LPO) (UniProt P80025); experiment: LPO + Br halogenation inhibition (MCD assay); settings: bromide as substrate
myeloperoxidase (MPO) [2] = target: T2, myeloperoxidase (MPO) (Homo sapiens, UniProt P05164); experiment: MPO + Br halogenation inhibition (MCD assay); settings: bromide as substrate
T2 sequence (P05164 49-745): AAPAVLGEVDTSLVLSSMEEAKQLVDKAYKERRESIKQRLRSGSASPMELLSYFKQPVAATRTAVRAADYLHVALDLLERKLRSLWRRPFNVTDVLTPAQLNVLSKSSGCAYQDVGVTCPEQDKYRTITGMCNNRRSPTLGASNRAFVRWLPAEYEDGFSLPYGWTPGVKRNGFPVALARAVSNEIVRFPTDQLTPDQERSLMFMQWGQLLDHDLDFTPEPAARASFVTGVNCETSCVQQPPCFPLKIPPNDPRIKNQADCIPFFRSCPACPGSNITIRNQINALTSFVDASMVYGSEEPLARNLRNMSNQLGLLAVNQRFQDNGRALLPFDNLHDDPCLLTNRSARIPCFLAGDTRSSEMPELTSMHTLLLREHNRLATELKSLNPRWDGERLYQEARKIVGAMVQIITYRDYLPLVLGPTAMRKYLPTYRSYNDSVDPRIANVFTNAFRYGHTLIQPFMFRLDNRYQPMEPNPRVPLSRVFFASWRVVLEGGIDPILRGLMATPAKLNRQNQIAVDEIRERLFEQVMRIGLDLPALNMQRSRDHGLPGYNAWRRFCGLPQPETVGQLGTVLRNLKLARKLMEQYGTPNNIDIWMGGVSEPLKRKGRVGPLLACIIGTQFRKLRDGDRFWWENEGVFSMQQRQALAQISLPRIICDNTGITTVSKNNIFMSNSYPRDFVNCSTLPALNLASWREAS

myeloperoxidase (MPO) [3] = target: T2, myeloperoxidase (MPO); experiment: MPO + Cl halogenation inhibition (MCD assay); settings: chloride as substrate
[4] = bromide oxidation, MCD assay at 290 nm, 100 mM bromide, 20 nM EPO, pH 7.0, read-out: IC50 EPO + Br
[5] = Example 3, same protocol as Example 1, read-out: IC50 EPO/Br
[6] = Example 2, tests performed as in Example 1, read-out: IC50 value (EPO)

SMILES | IC50 [1, 4] [nM] | IC50 (lactoperoxidase (LPO)) [nM] | IC50 (myeloperoxidase (MPO) [2]) [nM] | IC50 (myeloperoxidase (MPO) [3]) [nM] | fold potential relative to compound (6) (EPO IC50) ([1]; compound (3) compared with non-halogenated compound (6)) [fold] | IC50 [1, 5] [nM] | IC50 [1, 6] [nM]
NNC(=O)CNc1ccc(F)cc1 [(1), 4-fluoro-phenylaminoethane-hydrazide] | 240 | 540 | 4120 | 5430 |  |  | 
NNC(=O)CNc1ccc(Cl)cc1 [(2), 4-chloro-phenylaminoethane-hydrazide] | 24 | 30 | 1200 | 1970 |  |  | 
NNC(=O)CNc1ccccc1F [(3), 2-fluoro-phenylaminoethane-hydrazide] | 9 | 100 | 1900 | 8800 | > 200 |  | 
NNC(=O)CNc1ccc(F)c(Cl)c1 [(4), 4-fluoro-3-chloro-phenylaminoethane-hydrazide] | 19 | 140 | 547 | 2400 |  |  | 
NNC(=O)CNc1cccc(Br)c1 [(5), 3-bromo-phenylaminoethane-hydrazide] | 17 | 40 | 1600 | 3700 |  |  | 
NNC(=O)CNc1ccc(F)cc1F [(7), 2,4-di-fluoro-phenylaminoethane-hydrazide] | 34 | 322 | 2040 | 6550 |  |  | 
Cc1ccc(NCC(=O)NN)cc1 [(8), 4-methyl-phenylaminoethane-hydrazide] | 2270 | 2770 | 29400 | 32200 |  |  | 
NNC(=O)CNc1ccccc1 [Compound (6), phenylaminoethane-hydrazide] | 2290 | 4970 | 84600 | 46000 |  |  | 
O=C(O)CNc1ccccc1F [PD01, N-(2-fluorophenyl)glycin] |  |  |  |  |  | 1000 | 
O=C(O)CNc1ccc(Cl)cc1 [PD02, 2-[(4-chlorophenyl)amino]acetic acid] |  |  |  |  |  | 200 | 
NNC(=O)CSc1ccc(Cl)cc1 [PD06, 2-[(4-chlorophenyl)sulfanyl]acetohydrazide] |  |  |  |  |  | 1200 | 
NNC(=O)COc1ccc(F)cc1 [PD09, 2-(4-fluorophenoxy)acetohydrazide] |  |  |  |  |  | 2700 | 
NNC(=O)COc1ccccc1Br [PD17, 2-(2-bromophenoxy)acetohydrazide] |  |  |  |  |  | 3900 | 
NNC(=O)CCc1ccccc1O [PD20, 3-(2-hydroxyphenyl)propanohydrazide] |  |  |  |  |  | 3100 | 
CC(C)NNC(=O)c1ccncc1 [iproniazide, N′-isopropylisonicotinohydrazide, reference compound] |  |  |  |  |  |  | > 500000
NNC(=O)c1ccncc1 [isoniazide, pyridine-4-carbohydrazide, reference compound] |  |  |  |  |  |  | 6040
